Data as given in patent US4613505A, “Ester of flurbiprofen and emulsion containing the same” (The Green Cross Corporation, priority 1983, dated 1986).
Read-outs that look alike come from different tables or passages of the source.

Experiment: Hydrolysis in human articular synovia
Assay type: in vitro ADME
Details: for metabolised at 1 h: human, articular synovia, 60 minutes at 37° C., read-out: Hydrolysis rate
Procedure: Into 1 ml of articular synovia of a patient with rheumatoid or osteoarthritis, was added 10 ml of an acetone solution of ethyl 2-(2-fluoro-4-biphenylyl)propionate(ethyl flurbiprofen ester: compound 1) or acetoxymethyl 2-(2-fluoro-4-biphenylyl)propionate(acetoxymethyl flurbiprofen ester; compound 2) (each being contained in an equimolar amount to 50 ng of flurbiprofen), respectively, and the mixture was incubated for 60 minutes at 37° C. The concentration of flurbiprofen formed by hydrolysis was then determined by gas chromatography.

SMILES | hydrolysis in human articular synovia (in words) | metabolised at 1 h (patient five (Rheumatoid)) | metabolised at 1 h (patient four (Rheumatoid)) | metabolised at 1 h (patient one (Rheumatoid)) | metabolised at 1 h (patient three (Osteoarthritis)) | metabolised at 1 h (patient two (Unknown))
CCOC(=O)C(C)c1ccc(-c2ccccc2)c(F)c1 (stereo not drawn) [Compound 1, ethyl 2-(2-fluoro-4-biphenylyl)propionate] | substantially not hydrolyzed | 0% | 0% | 25.8% | 0% | 2%
CC(=O)OCOC(=O)C(C)c1ccc(-c2ccccc2)c(F)c1 (stereo not drawn) [Compound 2, acetoxymethyl 2-(2-fluoro-4-biphenylyl)propionate] | effectively hydrolyzed | 65.7% | 64.1% | 91.3% | 64.7% | 84.4%
